# Reference: article PMC5884648, “Relationship between the agonist activity of synthetic ligands of TRAIL-R2 and their cell surface binding modes” (Oncotarget, 2018)
# *1 amine or outer side, *2 acyl side, *3 side chain or, on linkers, in order; H or OH if unused. Where a SMILES comes first, the peptide text is derived from it. Bridges are numbered along the chain shown (N, C = ends). Roman numbers before positions name the chains, in order. X1 = CN(CCCC(=O)NC(CCC(=O)[*:1])CCC(=O)[*:2])C(=O)c1ccccc1-c1c2ccc(=N)c(S(=O)(=O)O)c-2oc2c(S(=O)(=O)O)c(N)ccc12; X2 = NC(CCC(=O)[*:1])CCC(=O)[*:2]
# Experiments:
# BJAB cells = assay: Cell viability MTS assay, BJAB; assay type: cell-based, human; details: 24 hours
# Description: (§1) BJAB, Jurkat and HCT116 cells (10^5 cells/well) were cultured in 100 µL of culture medium in 96-flat bottom well plates. The next day, cells were treated with the indicated concentrations of the different TRAILmin/DR5 peptides. After 24 hours of treatment cell viability measurement was performed by the MTS assay according to the manufacturer specification (Promega Corporation, Madison, WI, USA).
# Jurkat cells = assay: Cell viability MTS assay, Jurkat; assay type: cell-based, human; details: 24 hours
# Description: as §1
# HCT116 cells = assay: Cell viability MTS assay, HCT116; assay type: cell-based, human; details: 24 hours
# Description: as §1
# human TRAIL-R2 = target: T1, human TRAIL-R2 (Homo sapiens, UniProt O14763); assay: Surface plasmon resonance on sensor-immobilized TRAIL-R2; assay type: binding; details: for koff / kon: SPR, 25° C, Langmuir model
# T1 construct: purchased Enzo Life Sciences
# Description: SPR assays were performed on a Biacore T200™, at 25° C. The running buffer was HBS-EP [10 mM HEPES (pH 7.4) containing 0.15 M NaCl, 3.4 mM EDTA and 0.005% (v/v) Tween P20]. The human TRAIL-R2 (Enzo Life Sciences, Farmingdale, NY, USA) receptor was immobilized on a sCM5 sensor chip (GE Healthcare) using the standard amine coupling procedure. The receptors were diluted in 10 mM acetate buffer (pH 5.0) at a concentration of 5 μg/mL. The TRAIL-R2 immobilization level on the sensor chip was 430 RU. Peptides were injected at a flow rate of 5 μL/min for 120 s and allowed to dissociate for an additional 420 s. Surfaces were then regenerated for 5 s with 25 mM HCl. All binding curves were double-referenced (i.e. subtraction of the data of the empty flow cell followed by the subtraction of the data from a running buffer injection cycle).
# (§2) Double-referenced SPR binding curves sets were fitted globally using the BIAevaluation 4.1.1 (GE Healthcare Biacore) or TraceDrawer (Ridgeview Diagnostics AB, Uppsala, Sweden) softwares. The signal recorded with the LigandTracer on an empty spot or slide was subtracted from that recorded on cell-carrying slides. The resulting binding curves were analyzed by kinetic distribution analysis using the tool Interaction Map (Ridgeview Diagnostics AB, Uppsala, Sweden). Interaction Map decomposes the kinetic curve recorded for the binding of a homogeneous ligand to a heterogeneous group of targets into its different components. Results are represented as interaction maps (kon versus koff, log scale), where the color of each populated area represents its degree of contribution to the kinetic curve (red = high contribution, blue = low contribution).
# [1] = target: T2, TRAIL-R2 expressed on Jurkat cells (Homo sapiens, UniProt O14763); assay: LigandTracer real time binding on living Jurkat cells
# T2 construct: we used BJAB, HCT116 and Jurkat that express a natural level of TRAIL-R2 receptors; endogenous in cells; host or cells: Jurkat
# TRAIL-R2 on HCT116 cells = target: T3, TRAIL-R2 on HCT116 cells (Homo sapiens, UniProt O14763); assay: Flow cytometry staining with fluorescent peptides, HCT116; assay type: binding
# T3 construct: we used BJAB, HCT116 and Jurkat that express a natural level of TRAIL-R2 receptors; endogenous in cells; host or cells: HCT116
# Description: (§3) 10^6 cells were washed in PBS containing 2% FCS and then incubated at 4° C for 30 min with an anti-TRAIL-R2 antibody (clone BK9 Diaclone, Besançon, France) according to concentration recommended by the manufacturer or with fluorescent peptides at the concentration of 1 µM. After two washes in PBS-2% FBS, TRAIL-R2 expression was monitored by flow cytometry (Guava easyCyte™, Merck Milipore, Darmstadt, Germany) and data were analyzed with InCyte Software (Merck Milipore).
# [2] = target: TRAIL-R2 expressed on BJAB cells (Homo sapiens, UniProt O14763); assay: LigandTracer real time binding on living BJAB cells; parameters: expressed in transfected cells
# Description: The adherent cells HCT116-TRAIL-R2-DEF and HCT116 cells were directly plated on glass slides (Ø20 mm) (10^6 cells/well). The cells in suspension (BJAB and BJAB-TRAIL-R2-DEF) were covalently adhered to glass slides coated with poly-L-lysine (0.1% v/v) (Sigma Aldrich, Saint Louis, MO, USA). The adhesion was strong enough for measurement during 10h. After 24 hours, the slides were fixed with superglue at different locations of a Petri dish, which was inserted in the LigandTracer Green instrument (Ridgeview Instrument AB, Uppsala, Sweden). An empty spot or empty glass slide fixed to the Petri dish was used to record the background signal. This set-up allowed the simultaneous monitoring of the binding of a given peptide to different cell-carrying glass slides fixed to the dish. Three mL of solution (culture medium without or with fluorescent peptide) were added to the dish. In the LigandTracer instrument, the dish is tilted and rotates. Consequently the 3 mL solution covers only the lower part of the dish and each cell-carrying slide is alternatively in contact and out of contact with the solution (at intervals of 8 to 16 s). The fluorescence signal is recorded over time when the slide is out of the solution, and therefore corresponds to the amount of bound peptide. The solution in the dish was initially the culture medium (∼30 min) to provide a stable base line. The fluorescent peptide was then added in increasing doses (10, 30 and 90 nM) every two to three hours. Finally the peptide-containing sample was replaced with fresh medium and the dissociation of the peptide from the cells was followed overnight. The measurements were conducted at room temperature (approximately 20° C).
# as §2
# TRAIL-R2 on BJAB cells = target: T4, TRAIL-R2 on BJAB cells (Homo sapiens, UniProt O14763); assay: Flow cytometry staining with fluorescent peptides, BJAB; assay type: binding
# T4 construct: expressed in transfected cells
# Description: as §3
# [3] = target: T5, TRAIL-R2 expressed on HCT116 cells (Homo sapiens, UniProt O14763); assay: LigandTracer real time binding on living HCT116 cells; details: HCT116 cells expressing TRAIL-R2
# T5 construct: we used BJAB, HCT116 and Jurkat that express a natural level of TRAIL-R2 receptors; endogenous in cells; host or cells: HCT116
# Description: The adherent cells HCT116-TRAIL-R2-DEF and HCT116 cells were directly plated on glass slides (Ø20 mm) (10^6 cells/well). The cells in suspension (BJAB and BJAB-TRAIL-R2-DEF) were covalently adhered to glass slides coated with poly-L-lysine (0.1% v/v) (Sigma Aldrich, Saint Louis, MO, USA). The adhesion was strong enough for measurement during 10h. After 24 hours, the slides were fixed with superglue at different locations of a Petri dish, which was inserted in the LigandTracer Green instrument (Ridgeview Instrument AB, Uppsala, Sweden). An empty spot or empty glass slide fixed to the Petri dish was used to record the background signal. This set-up allowed the simultaneous monitoring of the binding of a given peptide to different cell-carrying glass slides fixed to the dish. […] The fluorescence signal is recorded over time when the slide is out of the solution, and therefore corresponds to the amount of bound peptide. […]
# Double-referenced SPR binding curves sets were fitted globally using the BIAevaluation 4.1.1 (GE Healthcare Biacore) or TraceDrawer (Ridgeview Diagnostics AB, Uppsala, Sweden) softwares. The signal recorded with the LigandTracer on an empty spot or slide was subtracted from that recorded on cell-carrying slides. The resulting binding curves were analyzed by kinetic distribution analysis using the tool Interaction Map (Ridgeview Diagnostics AB, Uppsala, Sweden). […]
# T1 sequence (O14763 56-440): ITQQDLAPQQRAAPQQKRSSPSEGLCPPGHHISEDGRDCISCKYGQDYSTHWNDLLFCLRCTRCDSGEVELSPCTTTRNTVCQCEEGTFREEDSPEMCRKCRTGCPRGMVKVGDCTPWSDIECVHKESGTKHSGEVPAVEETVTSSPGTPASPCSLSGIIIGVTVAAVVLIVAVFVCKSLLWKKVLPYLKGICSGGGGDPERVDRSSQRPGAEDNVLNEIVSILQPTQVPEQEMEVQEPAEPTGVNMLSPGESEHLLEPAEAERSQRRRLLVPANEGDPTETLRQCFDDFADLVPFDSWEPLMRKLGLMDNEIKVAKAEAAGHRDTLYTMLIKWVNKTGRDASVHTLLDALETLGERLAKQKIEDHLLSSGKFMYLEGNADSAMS
# TRAIL-R2 expressed on BJAB cells, sequence (O14763 56-440): as above
# T3 sequence (O14763 56-440): as above
# T4 sequence (O14763 56-440): as above
# T5 sequence (O14763 56-440): as above
# T2 sequence (O14763 56-440): as above
Structure (SMILES),apoptosis induction in BJAB cells (BJAB cells),apoptosis induction in Jurkat cells (Jurkat cells),apoptosis induction in HCT116 cells (HCT116 cells),koff (human TRAIL-R2),kon (human TRAIL-R2),"Rmax (human TRAIL-R2; TRAIL-R2 surface 1, one:one interaction model)","Rmax (human TRAIL-R2; TRAIL-R2 surface 2, one:one interaction model)",cell surface binding [1],"binding by flow cytometry (TRAIL-R2 on HCT116 cells; HCT116 cells deficient for TRAIL-R2, peptide 1 µM)","binding by flow cytometry (TRAIL-R2 on HCT116 cells; HCT116 cells expressing TRAIL-R2, peptide 1 µM)",cell surface binding ([2]; BJAB cells deficient for TRAIL-R2),cell surface binding ([2]; BJAB cells expressing TRAIL-R2),"fluorescent signal reached ([2]; BJAB cells that expressed TRAIL-R2, 10, 30 and (f1d) 90 nM)","binding by flow cytometry (TRAIL-R2 on BJAB cells; BJAB cells deficient for TRAIL-R2, peptide 1 µM)","binding by flow cytometry (TRAIL-R2 on BJAB cells; BJAB cells expressing TRAIL-R2, peptide 1 µM)",cell surface binding [3]
"CC[C@H](C)[C@@H]1NC(=O)[C@H](CCCNC(=N)N)NC(=O)[C@H](CC(N)=O)NC(=O)[C@H](CC(=O)O)NC(=O)[C@H](CC(C)C)NC(=O)[C@@H](NC(=O)[C@H](CC(=O)O)NC(=O)[C@H](Cc2c[nH]c3ccccc23)NC(C)=O)CSSC[C@@H](C(=O)N[C@H](C(=O)N[C@@H](CCCCNC(=O)CCC(N)CCC(=O)NCCCC[C@H](NC(=O)[C@@H](NC(=O)[C@@H]2CSSC[C@H](NC(=O)[C@H](CC(=O)O)NC(=O)[C@H](Cc3c[nH]c4ccccc34)NC(C)=O)C(=O)N[C@@H](CC(C)C)C(=O)N[C@@H](CC(=O)O)C(=O)N[C@@H](CC(N)=O)C(=O)N[C@@H](CCCNC(=N)N)C(=O)N[C@@H]([C@@H](C)CC)C(=O)NCC(=O)N[C@@H](CCCNC(=N)N)C(=O)N[C@@H](CCCNC(=N)N)C(=O)N[C@@H](CCC(N)=O)C(=O)N2)C(C)C)C(=O)N[C@@H](CC(C)C)C(N)=O)C(=O)N[C@@H](CC(C)C)C(N)=O)C(C)C)NC(=O)[C@H](CCC(N)=O)NC(=O)[C@H](CCCNC(=N)N)NC(=O)[C@H](CCCNC(=N)N)NC(=O)CNC1=O (some centres unmarked) [1d] (I: Ac-WDCLDNRIGRRQCVKL-NH2 / II: Ac-WDCLDNRIGRRQCVKL-NH2; disulfide I:3-I:13, II:3-II:13; linker I:15-II:15 via X2; N-terminus and C-terminus assumed)",underwent apoptosis,strong resistance,strong resistance,0.0014 s⁻¹,28000 M⁻¹ s⁻¹,38,13,–,–,–,–,–,–,–,–,–
"CC[C@H](C)[C@@H]1NC(=O)[C@H](CCCNC(=N)N)NC(=O)[C@H](CC(N)=O)NC(=O)[C@H](CC(=O)O)NC(=O)[C@H](CC(C)C)NC(=O)[C@@H](NC(=O)[C@H](CC(=O)O)NC(=O)[C@H](Cc2c[nH]c3ccccc23)NC(C)=O)CSSC[C@@H](C(=O)N[C@H](C(=O)N[C@@H](CCCNC(=N)N)C(=O)N[C@@H](CC(C)C)C(N)=O)C(C)C)NC(=O)[C@H](CCC(N)=O)NC(=O)[C@H](CCCNC(=N)N)NC(=O)[C@H](CCCCNC(=O)CCC(CCC(=O)NCCCC[C@@H]2NC(=O)CNC(=O)[C@H]([C@@H](C)CC)NC(=O)[C@H](CCCNC(=N)N)NC(=O)[C@H](CC(N)=O)NC(=O)[C@H](CC(=O)O)NC(=O)[C@H](CC(C)C)NC(=O)[C@@H](NC(=O)[C@H](CC(=O)O)NC(=O)[C@H](Cc3c[nH]c4ccccc34)NC(C)=O)CSSC[C@@H](C(=O)N[C@H](C(=O)N[C@@H](CCCNC(=N)N)C(=O)N[C@@H](CC(C)C)C(N)=O)C(C)C)NC(=O)[C@H](CCC(N)=O)NC(=O)[C@H](CCCNC(=N)N)NC2=O)NC(=O)CCCN(C)C(=O)c2ccccc2-c2c3ccc(=N)c(S(=O)(=O)O)c-3oc3c(S(=O)(=O)O)c(N)ccc23)NC(=O)CNC1=O (some centres unmarked) [f2d] (I: Ac-WDCLDNRIGKRQCVRL-NH2 / II: Ac-WDCLDNRIGKRQCVRL-NH2; disulfide I:3-I:13, II:3-II:13; linker I:10-II:10 via X1; N-terminus and C-terminus assumed)",induced apoptosis,–,scarcely induced their apoptosis,0.00026 s⁻¹,150000 M⁻¹ s⁻¹,–,–,"weak binding signal, if any",not,bound,weak signals,strong binding,> 25,not,bound,bound weakly
